Results from patent publication US20220348910A1, “METHODS AND COMPOSITIONS FOR MULTIPLEX GENE EDITING” (THE GOVERNING COUNCIL OF THE UNIVERSITY OF TORONTO, priority 2019, published 2022).

Test system: HPRT1
Experiment: Pooled positive selection hgRNA screen for resistance to 6-thioguanine
Assay type: cell-based, human
Details: 6-TG treated cells
Procedure: Lentiviral-based positive selection pooled hgRNA screens were performed, and the human HPRT1 and TK1 genes were targeted using guide pairs that either target within exonic regions, which are expected to result in gene knockout, or intronic loci flanking constitutive exons in these genes, which are expected to result in exon deletion (FIG. 1D). All of the exon-flanking hgRNAs in the library were designed to introduce double-strand DNA breaks at intronic sites that are at least 100 bps distal from splice sites flanking the target exons.
At T18 15 million cells were collected for genomic DNA extraction, and hgRNA expression cassettes were amplified and subjected to high-throughput sequencing as described below.

In the case of `Nc1nc2nc[nH]c2c(=S)[nH]1` [6-TG, 6-thioguanine], the “library constructs undetectable when cells were treated with 6-TG” value is reported as 95.8%.
